Target: ATP-dependent translocase ABCB1 (Homo sapiens, UniProt P08183)
Assay: TP_TRANSPORTER: increase in Vinblastine intracellular accumulation (Vinblastine: 1 uM, Estramustine: 50 uM) in SKVLB 1 cells
Type: functional, cell-based
Details: skvlb 1, 50 µM

ATP-dependent translocase ABCB1, sequence (P08183 whole entry): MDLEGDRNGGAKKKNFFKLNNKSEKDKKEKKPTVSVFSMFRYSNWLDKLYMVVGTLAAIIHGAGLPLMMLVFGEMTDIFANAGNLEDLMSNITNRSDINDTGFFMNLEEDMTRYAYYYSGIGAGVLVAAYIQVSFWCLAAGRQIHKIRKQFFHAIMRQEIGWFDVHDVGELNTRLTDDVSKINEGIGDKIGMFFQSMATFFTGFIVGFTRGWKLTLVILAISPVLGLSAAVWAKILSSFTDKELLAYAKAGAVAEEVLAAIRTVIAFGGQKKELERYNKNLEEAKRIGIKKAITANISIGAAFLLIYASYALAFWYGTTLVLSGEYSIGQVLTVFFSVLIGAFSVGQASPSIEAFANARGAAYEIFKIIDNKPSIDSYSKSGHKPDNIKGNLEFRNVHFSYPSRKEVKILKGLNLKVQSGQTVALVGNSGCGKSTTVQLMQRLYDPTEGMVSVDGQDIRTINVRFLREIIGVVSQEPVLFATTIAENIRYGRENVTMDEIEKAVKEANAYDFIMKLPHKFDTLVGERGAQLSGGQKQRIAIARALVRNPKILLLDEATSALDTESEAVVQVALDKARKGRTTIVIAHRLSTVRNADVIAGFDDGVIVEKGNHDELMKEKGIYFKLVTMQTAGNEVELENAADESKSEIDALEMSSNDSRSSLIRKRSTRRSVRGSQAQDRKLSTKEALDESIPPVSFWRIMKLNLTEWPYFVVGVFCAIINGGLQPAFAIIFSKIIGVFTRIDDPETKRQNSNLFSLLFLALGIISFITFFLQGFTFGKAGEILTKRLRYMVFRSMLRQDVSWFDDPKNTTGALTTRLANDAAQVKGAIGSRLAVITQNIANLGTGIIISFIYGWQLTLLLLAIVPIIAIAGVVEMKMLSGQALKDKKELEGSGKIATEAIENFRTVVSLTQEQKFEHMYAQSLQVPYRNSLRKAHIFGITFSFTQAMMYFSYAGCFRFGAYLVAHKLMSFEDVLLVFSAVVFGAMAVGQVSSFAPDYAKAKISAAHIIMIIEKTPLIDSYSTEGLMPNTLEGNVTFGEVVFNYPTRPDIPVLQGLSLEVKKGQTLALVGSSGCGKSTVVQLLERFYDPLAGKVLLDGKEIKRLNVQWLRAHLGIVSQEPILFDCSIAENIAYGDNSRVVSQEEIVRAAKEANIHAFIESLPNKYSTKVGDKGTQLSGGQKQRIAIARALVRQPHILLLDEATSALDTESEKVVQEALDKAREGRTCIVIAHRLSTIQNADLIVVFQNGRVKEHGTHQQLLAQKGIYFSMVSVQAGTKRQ

## C[C@]12CC[C@@H]3c4ccc(OC(=O)N(CCCl)CCCl)cc4CC[C@H]3[C@@H]1CC[C@@H]2O [ESTRAMUSTINE]
  Activity: inhibitor [+]
